The results in this text go back to PubChem BioAssay (NCI).

Holding throughout (assay): inhibition of tumour cell growth, NCI panel, 48 h
Experiment [1] has as its system BT-549 breast.
Experiment [2] relates to HCC-2998 colon.
For experiment [3], the system named is HL-60(TB) leukemia.
The subject of experiment [4] is LOX IMVI melanoma.
The test system of experiment [5] is MDA-MB-231 breast.
Experiment [6] concerns MDA-N.
For experiment [7], the system named is OVCAR-3 ovarian.
Experiment [8] deals with OVCAR-4 ovarian.
Experiment [9] has as its system SK-MEL-28 melanoma.
The test system of experiment [10] is UACC-257 melanoma.
The test system of experiment [11] is UACC-62 melanoma.
Experiment [12] concerns NCI-H226 lung.

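1) Cells in 96-well plates. 2) Compound, 48 h, 5 concentrations. 3) Linear interpolation between surrounding doses. 4) Unreached endpoint = highest concentration. TGI is the concentration that stops growth completely.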 Where only a bound is given, the exact number is not on record here.

On to `CCOP(=O)(OCC)/C(F)=C/c1ccccc1`, for which the TGI in experiment [1], in experiment [2], in [3], in experiment [4], in experiment [5] and in [6] was over 100 µM throughout. Moreover, the TGI in [7], in experiment [8], in [9], in [10] and in [11] was over 100 µM each time.
For the compound `O=C1N[C@@H]2c3c(csc3Br)C(=O)[C@@H]2O1`, the TGI in experiment [1] was over 100 µM; in experiment [2], 39.1 µM; in experiment [3] it was 64.9 µM; in experiment [4], 41.3 µM; in experiment [5] it was over 100 µM; in experiment [6], 67.6 µM. The TGI in experiment [7] is 47.8 µM; in experiment [9], over 100 µM; in [10], 58.9 µM; in [11] it was over 100 µM.
On to `O=C(O)c1ccc(NS(=O)(=O)Cc2ccccc2)cc1`, for which the TGI in [1], in experiment [2], in experiment [3], in experiment [4], in experiment [5] and in experiment [6] was over 100 µM throughout. For the same compound, the TGI in experiment [7], in experiment [8], in experiment [9], in experiment [10] and in experiment [11] was over 100 µM in each case.
For `Cc1cccc(C[C@@]2(SCc3ccccc3)C(C)(C)[C@@H]3CC[C@@]2(C)C3)n1`, the TGI in experiment [1] stood at 42.6 µM; in experiment [2] it was 28.8 µM; in [3], 29.7 µM; in experiment [4], 30.2 µM; in experiment [5], 28.5 µM; in experiment [6] it was 60.2 µM. For the same compound, the TGI in experiment [7] turned out to be 29.5 µM; in [9] it was 45.3 µM; in [10] it was 29.9 µM; in [11], 35.5 µM.
With `CCN(CCCN(CC)C(=O)N[C@@H](Cc1ccccc1)C(=O)NC)C(=O)N[C@@H](Cc1ccccc1)C(=O)NC`, the TGI in [1], in [2], in experiment [4], in experiment [5], in experiment [6] and in experiment [12] was over 100 µM each time. For the same compound, the TGI in experiment [7], in experiment [8], in [9], in experiment [10] and in [11] was over 100 µM each time.
On to `CC(C)/C(Cl)=N\OC(=O)NNc1ccccc1`, for which the TGI in [1] is over 100 µM; in experiment [2] it was over 100 µM; in experiment [4], 36.9 µM; in [5], over 94.2 µM; in experiment [6], over 100 µM; in experiment [12], 99.7 µM. Also, the TGI in experiment [7], in experiment [8], in [9], in experiment [10] and in experiment [11] was over 100 µM throughout.
In the case of `Cc1nc(Cl)c(CBr)c(Cl)n1`, the TGI worked out at 0.747 µM in experiment [1]; 11.5 µM in experiment [2]; 1.77 µM in experiment [4]; 3.67 µM in [5]; 2.97 µM in [6]; 6.73 µM in experiment [12]. In addition, the TGI in experiment [7] was 1.97 µM; in [8] it was 3.56 µM; in experiment [9], 3.07 µM; in experiment [10] it was 3.37 µM; in experiment [11], 3.46 µM.
As to `O=C(O)CNC(=O)c1ccc([As](=O)(O)O)cc1`, the TGI in [1], in experiment [3], in experiment [4], in experiment [5], in experiment [6] and in [12] was over 100 µM in each case. For the same compound, the TGI in [7], in [8], in experiment [9] and in [11] was over 100 µM in each case.
For `N#CSCc1cccc(Nc2cc(=O)[nH]c(=O)[nH]2)c1`, the TGI in [1], in experiment [2], in experiment [4], in experiment [5], in [6] and in [12] was over 100 µM each time. The TGI in [7], in [8], in [9], in [10] and in [11] was over 100 µM throughout.
For the compound `COc1cccc(-c2nc(-c3cnccn3)n(Cc3ccccc3)n2)c1`, the TGI in experiment [1], in experiment [2], in experiment [3], in experiment [4], in experiment [5] and in experiment [6] was over 100 µM in each case. Besides, the TGI in experiment [7], in [8], in experiment [9], in [10] and in experiment [11] was over 100 µM each time.
